Where two headings read alike, the source gives them in different places.
Columns and labels:
[1] = molecular target: T1, beta-catenin/TCF4 engagement (Homo sapiens, UniProt P35222); assay: Nano-BRET target engagement assay (B-cat-Halo & TCF4-Luc in HEK293 cells); format: cell-based; conditions: read-out: NanoBRET Abs IC50
T1 construct: expressed in transfected cells; host or cells: HEK293
T1 sequence (P35222 1-781): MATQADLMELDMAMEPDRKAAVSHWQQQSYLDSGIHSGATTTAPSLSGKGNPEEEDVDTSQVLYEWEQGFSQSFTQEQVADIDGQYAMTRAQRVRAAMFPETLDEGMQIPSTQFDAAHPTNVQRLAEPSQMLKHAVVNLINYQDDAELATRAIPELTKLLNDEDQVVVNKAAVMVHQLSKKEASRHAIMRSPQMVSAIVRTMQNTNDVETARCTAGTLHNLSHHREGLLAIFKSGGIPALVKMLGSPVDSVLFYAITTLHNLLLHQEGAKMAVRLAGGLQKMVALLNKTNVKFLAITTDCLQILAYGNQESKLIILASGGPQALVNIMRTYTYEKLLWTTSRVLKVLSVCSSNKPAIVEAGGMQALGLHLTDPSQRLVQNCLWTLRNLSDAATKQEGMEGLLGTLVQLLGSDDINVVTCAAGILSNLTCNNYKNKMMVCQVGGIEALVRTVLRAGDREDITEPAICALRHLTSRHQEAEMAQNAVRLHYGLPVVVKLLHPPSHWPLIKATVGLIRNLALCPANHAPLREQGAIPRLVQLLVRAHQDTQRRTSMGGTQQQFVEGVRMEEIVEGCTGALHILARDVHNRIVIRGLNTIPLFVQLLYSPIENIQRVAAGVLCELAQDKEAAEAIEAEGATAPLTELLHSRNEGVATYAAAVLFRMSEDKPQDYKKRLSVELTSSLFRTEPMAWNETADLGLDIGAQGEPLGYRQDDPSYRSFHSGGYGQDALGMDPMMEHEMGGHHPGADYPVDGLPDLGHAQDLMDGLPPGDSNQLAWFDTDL

[2] = molecular target: T2, full-length beta-Catenin (Uniprot ID P35222) (Homo sapiens, UniProt P35222); assay: Fluorescence polarization IC50 (beta-catenin / 5FAM-TCF4 10-53 competition); format: binding; conditions: fluorescence polarization; read-out: beta-Catenin FP IC50
T2 construct: 10 nM full-length beta-Catenin (Uniprot ID P35222)
T2 sequence (P35222 1-781): T1 sequence (P35222 1-781)

Row | SMILES | IC50 ([1]; absolute IC50) [nM] | IC50 [2] [nM] | IC50 [1] [nM]
1 | CC(=O)N1CCC[C@]12CC=CCCCC1(CCCC=CCCCOC(=O)N3CC[C@@](C(=O)N[C@@H](Cc4ccsc4)C(=O)N[C@@H](Cc4csc5ccccc45)C(=O)N[C@@H](CCC(N)=O)C(N)=O)(C3)NC(=O)[C@H](CC(C)C)NC(=O)[C@H](Cc3ccccc3)NC(=O)[C@H](C)NC(=O)[C@H](C)NC(=O)[C@H](CC(=O)O)NC(=O)[C@H](CC(=O)O)NC1=O)NC(=O)[C@H](CCCCNC(=O)COCCOCCNC(=O)CC[C@@H](C)[C@H]1CC[C@H]3[C@@H]4CC[C@@H]5C[C@H](O)CC[C@]5(C)[C@H]4CC[C@]13C)NC(=O)[C@H](CC(=O)O)NC2=O (stereo partly drawn) [I-1470, Ac-PL3-Asp-[lithocholate-PEG2]-Lys-B5-Asp-Asp-Ala-Ala-Phe-Leu-PyrS2-3Thi-BztA-Gln-NH2] | > 20000 | 57 | 
2 | CC(=O)N1CCC[C@]12CC=CCCCC1(CCCC=CCCCCCC[C@@](C)(C(=O)N[C@@H](Cc3ccccc3Cl)C(=O)N[C@@H](Cc3csc4ccccc34)C(=O)N[C@@H](CCC(N)=O)C(N)=O)NC(=O)[C@H](CCO)NC(=O)[C@H](Cc3ccccc3)NC(=O)[C@H](C)NC(=O)[C@H](C)NC(=O)[C@H](CC(=O)O)NC(=O)[C@H](CC(=O)O)NC1=O)NC(=O)[C@H](CC(C)(C)C)NC(=O)[C@H](CC(=O)O)NC2=O (stereo partly drawn) [I-1395, Ac-PL3-Asp-Npg-B5-Asp-Asp-Ala-Ala-Phe-Hse-S8-2C1F-BztA-Gln-NH2] | 15400 | 33 | 
3 | CC(=O)N1CCC[C@]12CC=CCCCC1(CCCC=CCCCOC(=O)N3CC[C@@](C(=O)N[C@@H](Cc4ccccc4Cl)C(=O)N[C@@H](Cc4csc5ccccc45)C(=O)N[C@@H](CCC(N)=O)C(N)=O)(C3)NC(=O)[C@H](CC(N)=O)NC(=O)[C@H](Cc3ccccc3)NC(=O)[C@H](C)NC(=O)[C@H](C)NC(=O)[C@H](CC(=O)O)NC(=O)[C@H](CC(=O)O)NC1=O)NC(=O)[C@H](CC(C)(C)C)NC(=O)[C@H](CC(=O)S)NC2=O (stereo partly drawn) [I-1721, Ac-PL3-AspSH-Npg-B5-Asp-Asp-Ala-Ala-Phe-Asn-PyrS2-2C1F-BztA-Gln-NH2] | > 20000 | 139 | 
4 | CCCc1cn(CCCC[C@H](NC(=O)[C@H](Cc2csc3ccccc23)NC(=O)[C@H](Cc2ccsc2)NC(=O)[C@]23CCN(C2)C(=O)OCCCC=CCCCC2(CCCC=CC[C@]4(CCCN4C(C)=O)C(=O)N[C@@H](CC(=O)O)C(=O)N[C@@H](CC(C)(C)C)C(=O)N2)C(=O)N[C@@H](CC(=O)O)C(=O)N[C@@H](CC(=O)O)C(=O)N[C@@H](C)C(=O)N[C@@H](C)C(=O)N[C@@H](Cc2ccccc2)C(=O)N[C@@H](CC(C)C)C(=O)N3)C(N)=O)nn1 (stereo partly drawn) [I-2375, Ac-PL3-Asp-Npg-B5-Asp-Asp-Ala-Ala-Phe-Leu-PyrS2-3Thi-BztA-[3C]TriAzLys-NH2] | 13500 | 5 | 
5 | CC[C@@H]1NC(=O)[C@H](Cc2ccccc2)NC(=O)[C@H](C)NC(=O)C(C)(C)NC(=O)[C@H](Cc2cccc(C(=O)O)c2)NC(=O)[C@H](CC(=O)O)NC(=O)C2(CCCC=CCCCOC(=O)N3CC[C@@](C(=O)N[C@@H](Cc4ccsc4)C(=O)N[C@@H](Cc4csc5ccccc45)C(=O)N[C@@H](CCC(=O)N4CCC(N5CCCCC5)CC4)C(N)=O)(C3)NC1=O)CCCC=CC[C@]1(CCCN1C(C)=O)C(=O)N[C@@H](CC(=O)O)C(=O)N[C@@H](CC(C)(C)C)C(=O)N2 (stereo partly drawn) [I-2560, Ac-PL3-Asp-Npg-B5-Asp-3COOHF-Aib-Ala-Phe-Abu-PyrS2-3Thi-BztA-[4Pippip]GlnR-NH2] | 19300 | 9 | 
6 | CC(=O)N1CCC[C@]12CC=CCCCC1(CCCC=CCCCCCC[C@@](C)(C(=O)N[C@@H](Cc3ccccc3C(F)(F)F)C(=O)N[C@@H](Cc3csc4ccccc34)C(=O)N[C@@H](CCC(N)=O)C(N)=O)NC(=O)[C@H](CCO)NC(=O)[C@H](Cc3ccccc3)NC(=O)[C@H](C)NC(=O)[C@H](C)NC(=O)[C@H](CC(=O)O)NC(=O)[C@H](CC(=O)O)NC1=O)NC(=O)[C@H](CC(C)(C)C)NC(=O)[C@H](CC(=O)O)NC2=O (stereo partly drawn) [I-1397, Ac-PL3-Asp-Npg-B5-Asp-Asp-Ala-Ala-Phe-Hse-S8-2F3MeF-BztA-Gln-NH2] | 16400 | 48 | 
7 | CC(=O)N1CCC[C@]12CC=CCCCC1(CCCC=CCCCOC(=O)N3CC[C@@](C(=O)N[C@@H](Cc4ccsc4)C(=O)N[C@@H](Cc4csc5ccccc45)C(=O)N[C@@H](CCC(N)=O)C(N)=O)(C3)NC(=O)[C@H](CC(C)C)NC(=O)[C@H](Cc3ccccc3)NC(=O)[C@H](C)NC(=O)[C@H](C)NC(=O)[C@H](CN(CC(=O)O)C(=O)c3c(F)c(F)c(F)c(F)c3F)NC(=O)[C@H](CC(=O)O)NC1=O)NC(=O)[C@H](CC(C)(C)C)NC(=O)[C@H](CC(=O)O)NC2=O (stereo partly drawn) [I-2242, Ac-PL3-Asp-Npg-B5-Asp-[PfBz]GA-Ala-Ala-Phe-Leu-PyrS2-3Thi-BztA-Gln-NH2] | 21400 | 13 | 

The next lines start with the values.

Row | IC50 ([1]; absolute IC50) [nM] | IC50 [2] [nM] | IC50 [1] [nM] | SMILES
8 | 10500 | 17 |  | CCCC[C@@H]1NC(=O)[C@H](Cc2ccccc2)NC(=O)[C@H](C)NC(=O)[C@H](C)NC(=O)[C@H](CN(CC(=O)O)CC(F)(F)F)NC(=O)[C@H](CC(=O)O)NC(=O)C2(CCCC=CCCCOC(=O)N3CC[C@@](C(=O)N[C@@H](Cc4ccsc4)C(=O)N[C@@H](Cc4csc5ccccc45)C(=O)N[C@@H](CCC(N)=O)C(N)=O)(C3)NC1=O)CCCC=CC[C@]1(CCCN1C(C)=O)C(=O)N[C@@H](CC(=O)O)C(=O)N[C@@H](CC(C)(C)C)C(=O)N2 (stereo partly drawn) [I-1776, Ac-PL3-Asp-Npg-B5-Asp-TfeGA-Ala-Ala-Phe-nLeu-PyrS2-3Thi-BztA-Gln-NH2]
9 | > 20000 | 219 |  | CC(=O)NCCCC[C@@H]1NC(=O)[C@H](CCC(N)=O)NC(=O)[C@H](CC(=O)O)NC(=O)C2(CCCC=CCCCOC(=O)N3CC[C@@](C(=O)N[C@@H](Cc4ccccc4)C(=O)N[C@@H](Cc4csc5ccccc45)C(=O)N[C@@H](CC(=O)N4CCOCC4)C(N)=O)(C3)NC(=O)[C@H](CC(C)C)NC(=O)[C@H](Cc3ccccc3)NC(=O)[C@H](C)NC1=O)CCCC=CC[C@]1(CCCN1C(C)=O)C(=O)N[C@@H](CC(N)=O)C(=O)N[C@@H](CC1CCCCC1)C(=O)N2 (stereo partly drawn) [I-2522, Ac-PL3-Asn-Cha-B5-Asp-Gln-[Ac]Lys-Ala-Phe-Leu-PyrS2-Phe-BztA-MorphAsn-NH2]
10 | 3700 | 18 |  | CC(=O)N1CCC[C@]12CC=CCCCC1(CCCC=CCCCOC(=O)N3CC[C@@](C(=O)N[C@@H](Cc4ccsc4)C(=O)N[C@@H](Cc4csc5ccccc45)C(=O)N[C@@H](C)C(N)=O)(C3)NC(=O)[C@H](CC(C)C)NC(=O)[C@H](Cc3ccc(F)cc3)NC(=O)[C@H](C)NC(=O)[C@H](C)NC(=O)[C@H](Cc3cccc(C(=O)O)c3)NC(=O)[C@H](CC(=O)O)NC1=O)NC(=O)[C@H](CC(C)(C)C)NC(=O)[C@H](CC(=O)O)NC2=O (stereo partly drawn) [I-2262, Ac-PL3-Asp-Npg-B5-Asp-3COOHF-Ala-Ala-4FF-Leu-PyrS2-3Thi-BztA-Ala-NH2]
11 |  | 13 | 11500 | CC(=O)N1CCC[C@]12CC=CCCCC1(CCCC=CCCCOC(=O)N3CC[C@@](C(=O)N[C@@H](Cc4ccsc4)C(=O)N[C@@H](Cc4csc5ccccc45)C(=O)N[C@@H](Cc4ccccc4)C(N)=O)(C3)NC(=O)[C@H](CC(C)C)NC(=O)[C@H](Cc3ccccc3)NC(=O)[C@H](C)NC(=O)[C@H](CCC(N)=O)NC(=O)[C@H](Cc3cccc(C(=O)O)c3)NC(=O)[C@H](CC(=O)O)NC1=O)NC(=O)[C@H](CC(C)(C)C)NC(=O)[C@H](CC(=O)O)NC2=O (stereo partly drawn) [I-1912, Ac-PL3-Asp-Npg-B5-Asp-3COOHF-Gln-Ala-Phe-Leu-PyrS2-3Thi-BztA-Phe-NH2]

From patent US20240116985A1, “STAPLED PEPTIDES AND METHODS THEREOF” (priority 2020, published 2024)
